Tested on: human Axioloids
Assay: Immunofluorescence and HCR in situ expression patterns in Axioloids
Format: cell-based
Procedure: Human Axioloid samples were washed twice with 0.1% BSA (Nacalai) in PBS (Takara), fixed with 4% paraformaldehyde (PFA) for 20 minutes at room temperature and then washed again twice with 0.1% BSA in PBS. Samples were permeabilized in 0.2% Triton X-100 (Nacalai) in PBS for 15 minutes at room temperature and blocked in 5% BSA in PBS for 1 hour at room temperature. Axioloid samples were stained with primary antibodies diluted in 0.5% BSA in PBST (1% Tween-20 (Nacalai) in PBS) for overnight (12-16 hours) at 4° C. Primary antibodies used in this study were: goat anti-TBXT (TBXT) (1:500, R&D Systems), mouse anti-Fibronectin (1:10, DSHB), mouse anti-Laminin (γ1) (1:10, DSHB), rabbit anti-MEOX1 (1:500, ATLAS), mouse anti-N-Cadherin (1:200, BD Biosciences), mouse anti-PKCζ (1:100, Santa Cruz), rabbit anti-SOX2 (1:400, Cell Signaling), and goat anti-TBX6 (1:500, R&D Systems). Samples were then washed twice with PBST and stained with secondary antibodies and Alexa Fluor 647 conjugated Phalloidin (Invitrogen) diluted in 0.5% BSA in PBST for 3 hours at room temperature, washed twice with PBST and counterstained with DAPI for 5 min at room temperature. […]

With CC1=C(/C=C/C(C)=C/C=C/C(C)=C/C=O)C(C)(C)CCC1 [RAL, all trans-Retinal] the “expression gradients of FGF8 and WNT3a (HCR)” value (MG+RAL) was “still showed clear expression gradients of FGF8 and WNT3a” and the “protein and gene expression patterns (TBXT, MEOX1, UNCX, TBX18)” value (MG-embedded, RA or RAL treated) was “largely unchanged or even improved”.
